Assay results taken from ChEMBL document CHEMBL1201862, “PubChem BioAssay data set” (2004).
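Assay format: 96-well plates, 48-hour exposure. GI50 = concentration required for 50% inhibition of growth.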 Calls of active or inactive are those of the source. No stated cut-off is given here; in the data, active = GI50 up to about 1.1 µM and inactive = higher.

How the values were obtained:
Assay in all cases: NCI anticancer screen, dose series, 48 h
786-0 = test system: 786-0
DU-145 = test system: DU-145
EKVX = test system: EKVX
HCC 2998 = test system: HCC 2998
K562 = test system: K562
M14 = test system: M14
MDA-MB-435 = test system: MDA-MB-435
MOLT-4 = test system: MOLT-4
Malme-3M = test system: Malme-3M
NCI-H23 = test system: NCI-H23
OVCAR-3 = test system: OVCAR-3
OVCAR-5 = test system: OVCAR-5
OVCAR-8 = test system: OVCAR-8
PC-3 = test system: PC-3
SN12C = test system: SN12C
TK-10 = test system: TK-10
U-251 = test system: U-251
SK-MEL-2 = test system: SK-MEL-2

Row | SMILES | GI50 (786-0) | GI50 (DU-145) | GI50 (EKVX) | GI50 (HCC 2998) | GI50 (K562) | GI50 (M14) | GI50 (MDA-MB-435) | GI50 (MOLT-4) | GI50 (Malme-3M) | GI50 (NCI-H23) | GI50 (OVCAR-3) | GI50 (OVCAR-5) | GI50 (OVCAR-8) | GI50 (PC-3) | GI50 (SN12C) | GI50 (TK-10) | GI50 (U-251) | GI50 (SK-MEL-2)
1 | CCOC(=O)c1sc2c(c1OC(=O)c1cc(OC)c(OC)c(OC)c1)c(=O)n(-c1ccccc1)c(=S)n2-c1ccccc1 | 84.1 µM (inactive) | > 100 µM (inactive) | 45.5 µM (inactive) | 81.3 µM (inactive) | 65 µM (inactive) | 40.5 µM (inactive) | 79.1 µM (inactive) | 28.4 µM (inactive) | > 100 µM (inactive) | 53.1 µM (inactive) | 87.7 µM (inactive) | > 100 µM (inactive) | 74.8 µM (inactive) | 63.5 µM (inactive) | 90.2 µM (inactive) | > 100 µM (inactive) | 49.8 µM (inactive) | –
2 | Cc1nc2cccc([N+](=O)[O-])c2c(NCCCN(C)C)c1C | > 61.5 µM (inactive) | 78.2 µM (inactive) | > 31.6 µM (inactive) | 21.8 µM (inactive) | 31.7 µM (inactive) | 35.5 µM (inactive) | 71.4 µM (inactive) | 20.5 µM (inactive) | 22.2 µM (inactive) | 28.1 µM (inactive) | 26.6 µM (inactive) | 27 µM (inactive) | 36.1 µM (inactive) | 17.8 µM (inactive) | 11.5 µM (inactive) | > 40.9 µM (inactive) | > 79.8 µM (inactive) | > 51.3 µM (inactive)
3 | CO[C@]12CC(=O)C3(C(C[C@H]4CC5CC[C@H]6C[C@@H](OC(C)=O)CC[C@]6(OC(C)=O)C5C[C@@]43C)C1)C1C[C@H]3[C@@H]4CC[C@H]5C[C@@H](OC(C)=O)CC[C@]5(OC(C)=O)[C@H]4CC[C@]3(C)C12 (some centres not stated) | 64.4 µM (inactive) | 70.3 µM (inactive) | > 100 µM (inactive) | 59.2 µM (inactive) | 54.6 µM (inactive) | > 100 µM (inactive) | 56 µM (inactive) | 51.1 µM (inactive) | > 100 µM (inactive) | 83.4 µM (inactive) | > 100 µM (inactive) | > 100 µM (inactive) | 46 µM (inactive) | 50.8 µM (inactive) | > 100 µM (inactive) | > 100 µM (inactive) | 75.5 µM (inactive) | > 100 µM (inactive)
4 | CC1=C(C(N)=O)C(c2ccncc2)C(C#N)C(=O)N1 (configuration not stated) | > 100 µM (inactive) | > 100 µM (inactive) | > 100 µM (inactive) | > 100 µM (inactive) | > 100 µM (inactive) | > 100 µM (inactive) | > 100 µM (inactive) | > 100 µM (inactive) | – | > 100 µM (inactive) | – | – | – | > 100 µM (inactive) | – | > 100 µM (inactive) | > 100 µM (inactive) | > 100 µM (inactive)
5 | CCCCOC(=O)NC(Nc1cccc(C(F)(F)F)c1)(C(F)(F)F)C(F)(F)F | 84.1 µM (inactive) | > 100 µM (inactive) | 51.5 µM (inactive) | – | 30.5 µM (inactive) | 47.3 µM (inactive) | 33.8 µM (inactive) | 34.8 µM (inactive) | 29.2 µM (inactive) | 50.8 µM (inactive) | 56 µM (inactive) | > 100 µM (inactive) | 57.4 µM (inactive) | 68.7 µM (inactive) | 68.7 µM (inactive) | 71.1 µM (inactive) | 36.1 µM (inactive) | 35.5 µM (inactive)
6 | C=C(Br)C[N+]12CN3CN(CN(C3)C1)C2 | > 100 µM (inactive) | > 100 µM (inactive) | > 100 µM (inactive) | > 100 µM (inactive) | > 100 µM (inactive) | > 100 µM (inactive) | > 100 µM (inactive) | > 100 µM (inactive) | > 100 µM (inactive) | > 100 µM (inactive) | > 100 µM (inactive) | > 100 µM (inactive) | > 100 µM (inactive) | > 100 µM (inactive) | > 100 µM (inactive) | – | > 100 µM (inactive) | > 100 µM (inactive)
7 | O=C(CC(C(=O)c1ccsc1)c1cccs1)c1ccsc1 (configuration not stated) | > 100 µM (inactive) | 75.7 µM (inactive) | 49.9 µM (inactive) | > 100 µM (inactive) | 42.8 µM (inactive) | 56 µM (inactive) | 34.8 µM (inactive) | 28.5 µM (inactive) | 56.8 µM (inactive) | 32.6 µM (inactive) | – | > 100 µM (inactive) | 60.5 µM (inactive) | 28.5 µM (inactive) | 65.6 µM (inactive) | > 100 µM (inactive) | > 100 µM (inactive) | 94 µM (inactive)
8 | COc1ccc2c(c1)nc1n2C(c2c(F)cccc2Cl)SC1 (configuration not stated) | 5.68 µM (inactive) | 1.49 µM (inactive) | 26.1 µM (inactive) | 4.2 µM (inactive) | > 100 µM (inactive) | 3.9 µM (inactive) | 0.703 µM (active) | – | 1.02 µM (active) | 3.59 µM (inactive) | – | > 37.2 µM (inactive) | 3.92 µM (inactive) | – | > 22.6 µM (inactive) | > 25.9 µM (inactive) | 5.08 µM (inactive) | –
9 | Cc1cc(C)c2[s+]snc2c1 | > 100 µM (inactive) | – | > 100 µM (inactive) | > 100 µM (inactive) | 27.7 µM (inactive) | 37.8 µM (inactive) | – | 33.9 µM (inactive) | > 100 µM (inactive) | 54 µM (inactive) | 97.9 µM (inactive) | > 100 µM (inactive) | 33.7 µM (inactive) | – | 47.1 µM (inactive) | > 100 µM (inactive) | 48.9 µM (inactive) | 75 µM (inactive)
10 | CCOC(=O)c1c(-c2cccc3ccccc23)c(C#N)c(=S)n(C2OC(COC(C)=O)C(OC(C)=O)C(OC(C)=O)C2OC(C)=O)c1C (configuration not stated) | > 100 µM (inactive) | > 100 µM (inactive) | – | > 100 µM (inactive) | > 100 µM (inactive) | > 100 µM (inactive) | > 100 µM (inactive) | > 100 µM (inactive) | > 100 µM (inactive) | > 100 µM (inactive) | > 100 µM (inactive) | > 100 µM (inactive) | > 100 µM (inactive) | 15.8 µM (inactive) | > 100 µM (inactive) | > 100 µM (inactive) | > 100 µM (inactive) | 64.1 µM (inactive)
11 | CC1CC(NN(C)C)C2(C(N)=O)C(N)=NC(=O)C12C#N (configuration not stated) | > 100 µM (inactive) | > 100 µM (inactive) | > 100 µM (inactive) | > 100 µM (inactive) | > 100 µM (inactive) | > 100 µM (inactive) | > 100 µM (inactive) | > 100 µM (inactive) | > 100 µM (inactive) | > 100 µM (inactive) | – | > 100 µM (inactive) | > 100 µM (inactive) | > 100 µM (inactive) | > 100 µM (inactive) | > 100 µM (inactive) | > 100 µM (inactive) | > 100 µM (inactive)
12 | COC(=O)C1CCC(=O)N1CN(C(C)=O)c1cc(OC)ccc1OC (configuration not stated) | > 100 µM (inactive) | > 100 µM (inactive) | > 100 µM (inactive) | – | > 100 µM (inactive) | > 100 µM (inactive) | > 100 µM (inactive) | > 100 µM (inactive) | > 100 µM (inactive) | > 100 µM (inactive) | > 100 µM (inactive) | > 100 µM (inactive) | > 100 µM (inactive) | > 100 µM (inactive) | > 100 µM (inactive) | > 100 µM (inactive) | > 100 µM (inactive) | > 100 µM (inactive)
